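Assay format: 96-well plates, 48-hour exposure. Abbreviation: GI50, concentration required for 50% inhibition of growth.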 Calls of active or inactive are those of the source. Rule as the data show it: active = GI50 up to about 1.1 µM and inactive = higher.

Among the test systems are RPMI-8226; HT-29; Malme-3M; OVCAR-3; SNB-19; RXF 393; SK-MEL-2; HOP-62; ACHN; TK-10; PC-3; OVCAR-4; SN12C; SR; HCT-15; NCI-H522; CCRF-CEM; MDA-MB-231; SK-MEL-5; HL-60.
What all share (assay): DTP human tumour cell line panel, 48 h

One may read the GI50 as the concentration giving 50% growth inhibition. Regarding `CC1(C)COCN1COC1CCCCC1`, the GI50 with RPMI-8226, in the assay on HT-29, in the assay on Malme-3M, with OVCAR-3, in the assay on SNB-19 and with RXF 393 was > 100 µM (inactive) each time. Further, the GI50 in the assay with SK-MEL-2, in the assay with HOP-62, in the assay with ACHN, in the assay with TK-10, in the assay with PC-3 and in the assay with OVCAR-4 was > 100 µM (inactive) in each case. The GI50 is > 100 µM (inactive) in the assay on SN12C; 20.1 µM (inactive) with SR; greater than 100 µM in the assay on HCT-15; > 100 µM (inactive) with NCI-H522; 4.91 µM (inactive) with CCRF-CEM; > 100 µM (inactive) in the assay with MDA-MB-231. Also, in the assay with SK-MEL-5, the GI50 was > 100 µM (inactive).
Turning to `O=C(Cc1ccccc1CCO)NCCc1ccccc1`, the GI50 in the assay on RPMI-8226, with HT-29, with OVCAR-3, in the assay on SNB-19, in the assay on RXF 393 and in the assay with SK-MEL-2 was > 100 µM (inactive) each time. The GI50 in the assay with HOP-62, in the assay on ACHN, with TK-10, in the assay with PC-3, in the assay on OVCAR-4 and in the assay on SN12C was > 100 µM (inactive) each time. The GI50 with SR was > 100 µM (inactive); with HL-60, > 100 µM (inactive); in the assay with HCT-15, greater than 100 µM; in the assay on NCI-H522 it was > 100 µM (inactive); in the assay with CCRF-CEM, > 100 µM (inactive); with MDA-MB-231 it was > 100 µM (inactive). The GI50 in the assay on SK-MEL-5 was > 100 µM (inactive).
`SC1CCCN(Cc2ccccc2)C1` (stereo not given): the GI50 with RPMI-8226 is 21.3 µM (inactive); with HT-29 it was 21 µM (inactive); in the assay on OVCAR-3 it was > 100 µM (inactive); in the assay on SNB-19 it was > 100 µM (inactive); with RXF 393 it was > 100 µM (inactive); in the assay with SK-MEL-2 it was 36 µM (inactive). Also, the GI50 in the assay on HOP-62 was > 100 µM (inactive); in the assay with ACHN, 74.8 µM (inactive); with TK-10 it was 69.7 µM (inactive); in the assay on PC-3, 57.5 µM (inactive); in the assay with OVCAR-4, 56.9 µM (inactive); in the assay with SN12C, 95.3 µM (inactive). Further, the GI50 in the assay with SR is 27.9 µM (inactive); in the assay with HL-60 it was 34.8 µM (inactive); in the assay on HCT-15, 38.2 µM; in the assay on NCI-H522, 35.7 µM (inactive); in the assay on MDA-MB-231, 56.5 µM (inactive); in the assay with SK-MEL-5, 18.5 µM (inactive).
`CCc1cn2c(/C=N/N=C(N)N)c(-c3cc(C)c(Cl)cc3Cl)nc2s1`: the GI50 in the assay on RPMI-8226 was 1.24 µM (inactive); in the assay with HT-29, 1.22 µM (inactive); in the assay with Malme-3M, 1.37 µM (inactive); in the assay on OVCAR-3, 1.48 µM (inactive); in the assay with SNB-19, 1.54 µM (inactive); in the assay on RXF 393, 1.74 µM (inactive). The GI50 with SK-MEL-2 is 1.82 µM (inactive); with ACHN it was 1.68 µM (inactive); in the assay with TK-10, 1.97 µM (inactive); in the assay on PC-3, 1.56 µM (inactive); in the assay with OVCAR-4 it was 1.42 µM (inactive); with SR it was 1.56 µM (inactive). Also, the GI50 with HL-60 was 1.82 µM (inactive); in the assay with HCT-15, 1.62 µM; in the assay on NCI-H522 it was 1.87 µM (inactive); with CCRF-CEM it was 0.209 µM (active); in the assay with MDA-MB-231, 0.865 µM (active); in the assay on SK-MEL-5, 1.63 µM (inactive).
Turning to `O=C(NCCO)c1c(O)c2ccccc2[nH]c1=O`, the GI50 in the assay on RPMI-8226, in the assay with HT-29, in the assay with Malme-3M, with OVCAR-3, with SNB-19 and in the assay on RXF 393 was > 100 µM (inactive) each time. For the same compound, the GI50 in the assay on HOP-62, in the assay with ACHN, with TK-10, in the assay on PC-3, with OVCAR-4 and in the assay on SN12C was > 100 µM (inactive) in each case. Moreover, the GI50 in the assay on SR is > 100 µM (inactive); in the assay with HL-60 it was > 100 µM (inactive); in the assay with HCT-15, 62.2 µM; in the assay on NCI-H522 it was > 100 µM (inactive); with CCRF-CEM, > 100 µM (inactive); in the assay with MDA-MB-231, > 100 µM (inactive). Moreover, the GI50 in the assay on SK-MEL-5 is > 100 µM (inactive).
Regarding `Cc1cc(S(=O)(=O)NC2=Nc3cccc4cccc(c34)N2)c(S)cc1Cl`, the GI50 was > 100 µM (inactive) in the assay on RPMI-8226; > 100 µM (inactive) with Malme-3M; 53.7 µM (inactive) in the assay with OVCAR-3; 79.1 µM (inactive) with SNB-19; 97.5 µM (inactive) with RXF 393; > 100 µM (inactive) in the assay with SK-MEL-2. The GI50 was > 100 µM (inactive) in the assay on ACHN; 65.3 µM (inactive) with PC-3; 85.9 µM (inactive) with OVCAR-4; 60 µM (inactive) in the assay with SR; 77.4 µM (inactive) in the assay with HL-60; greater than 100 µM in the assay with HCT-15. The GI50 was > 100 µM (inactive) in the assay with NCI-H522, 44.5 µM (inactive) in the assay with CCRF-CEM, > 100 µM (inactive) in the assay on MDA-MB-231 and 60.5 µM (inactive) in the assay with SK-MEL-5.
As to `CCCCCCCCCCOCCOCCOCCOCCCCC(O)CCCCCCCC1=C[C@H](C)OC1=O` (stereo not given in full), the GI50 in the assay on RPMI-8226 was 0.933 µM (active); with HT-29, 10.7 µM (inactive); with Malme-3M it was 19.6 µM (inactive); in the assay with OVCAR-3 it was 16.2 µM (inactive); in the assay with SNB-19, 13.8 µM (inactive); with RXF 393, 10.9 µM (inactive). Besides, the GI50 with SK-MEL-2 is 12.5 µM (inactive); with ACHN, 11.7 µM (inactive); in the assay with TK-10 it was 10.2 µM (inactive); in the assay with PC-3, 9.98 µM (inactive); in the assay on OVCAR-4 it was 12.6 µM (inactive); with SN12C it was 13.3 µM (inactive). For the same compound, the GI50 in the assay with SR is 0.671 µM (active); in the assay on HL-60, 0.863 µM (active); in the assay with HCT-15, 12.7 µM; in the assay on NCI-H522, 6.34 µM (inactive); in the assay on CCRF-CEM it was 2.79 µM (inactive); with MDA-MB-231 it was 14.1 µM (inactive). In addition, in the assay with SK-MEL-5, the GI50 was 0.76 µM (active).
As for `COc1ccc(NCc2cc(OC)c(OC)c(OC)c2)cc1`, the GI50 was 0.612 µM (active) in the assay on RPMI-8226; 0.312 µM (active) in the assay on HT-29; 0.488 µM (active) in the assay on Malme-3M; 0.255 µM (active) in the assay on OVCAR-3; 0.698 µM (active) in the assay on SNB-19; 0.372 µM (active) in the assay with RXF 393. For the same compound, the GI50 with SK-MEL-2 was 0.466 µM (active); in the assay with HOP-62, 0.468 µM (active); in the assay on PC-3 it was 0.912 µM (active); with OVCAR-4 it was 17.3 µM (inactive); with SN12C, 0.818 µM (active); in the assay with SR, 0.228 µM (active). For the same compound, the GI50 in the assay with HL-60 was 0.205 µM (active); in the assay with HCT-15 it was 0.18 µM; with NCI-H522, 0.307 µM (active); with MDA-MB-231, 0.596 µM (active); with SK-MEL-5 it was 0.293 µM (active).

The record behind these values is ChEMBL document CHEMBL1201862, “PubChem BioAssay data set” (2004).
